Activity calls are given as the source filed them.
Assays:
[1] = target: T1, Runt-related transcription factor 1/Core-binding factor subunit beta (Homo sapiens, UniProt Q01196+Q13951); assay: Runt domain/CBFb-SMMHC interaction disruptors – biochemical, TR-FRET (AID 1438); assay type: protein assay
[2] = target: T1, Runt-related transcription factor 1/Core-binding factor subunit beta; assay: disruptors of Runt domain/CBFb-SMMHC interaction – biochemical, FRET, Cerulean-Runt, Venus-CBFb-SMMHC, uHTS, […] (AID 1434); assay type: protein assay
Bcl-2-like protein 1 = Bcl-2-like protein 1 (Homo sapiens, UniProt Q07817); assay: blockers of BCLXL peptide binding – biochemical, fluorescence polarization, 1536-well, selectivity assay for MCL1 inhibitor project, dose response (AID 2218)
Caspase-7 = Caspase-7 (Homo sapiens, UniProt P55210); assay: caspase-7 enzyme inhibition, selectivity check – biochemical, DEVD-R110 fluorescence, cherry-pick, selectivity assay for caspase-6 inhibitor project, dose response (AID 743295); assay type: functional
[3] = target: DNA dC->dU-editing enzyme APOBEC-3A (Homo sapiens, UniProt P31941); assay: Dose Response confirmation of small molecule APOBEC3A DNA Deaminase Inhibitors via a fluorescence-based single-stranded DNA deaminase assay. [Related pubchem assays (depositor defined):AID493011, AID493024]; assay type: functional
Caspase-6 = Caspase-6 (Homo sapiens, UniProt P55212); assay: inhibition of CASP6 peptide cleavage – biochemical, VEID-R110 fluorescence, cherry-pick, dose response (AID 720632)
[4] = target: DNA dC->dU-editing enzyme APOBEC-3G (Homo sapiens, UniProt Q9HC16); assay type: functional;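 also: Dose-response counterscreen measuring inhibition of APOBEC3G DNA deaminase activity, run while confirming APOBEC3A inhibitors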
[5] = target: Induced myeloid leukemia cell differentiation protein Mcl-1 (Homo sapiens, UniProt Q07820); assay: blockers of MCL1 binding to BIM peptide – biochemical, fluorescence polarization, BIM-BH3 peptide, 1536-well, dose response (AID 2217)
Coagulation factor XII [6] = target: T2, Coagulation factor XII (Homo sapiens, UniProt P00748); assay: Factor XIIa Dose Response Confirmation from Single Well HTS. [Related pubchem assays (depositor defined):AID701]; assay type: functional
T2 sequence (P00748 whole entry): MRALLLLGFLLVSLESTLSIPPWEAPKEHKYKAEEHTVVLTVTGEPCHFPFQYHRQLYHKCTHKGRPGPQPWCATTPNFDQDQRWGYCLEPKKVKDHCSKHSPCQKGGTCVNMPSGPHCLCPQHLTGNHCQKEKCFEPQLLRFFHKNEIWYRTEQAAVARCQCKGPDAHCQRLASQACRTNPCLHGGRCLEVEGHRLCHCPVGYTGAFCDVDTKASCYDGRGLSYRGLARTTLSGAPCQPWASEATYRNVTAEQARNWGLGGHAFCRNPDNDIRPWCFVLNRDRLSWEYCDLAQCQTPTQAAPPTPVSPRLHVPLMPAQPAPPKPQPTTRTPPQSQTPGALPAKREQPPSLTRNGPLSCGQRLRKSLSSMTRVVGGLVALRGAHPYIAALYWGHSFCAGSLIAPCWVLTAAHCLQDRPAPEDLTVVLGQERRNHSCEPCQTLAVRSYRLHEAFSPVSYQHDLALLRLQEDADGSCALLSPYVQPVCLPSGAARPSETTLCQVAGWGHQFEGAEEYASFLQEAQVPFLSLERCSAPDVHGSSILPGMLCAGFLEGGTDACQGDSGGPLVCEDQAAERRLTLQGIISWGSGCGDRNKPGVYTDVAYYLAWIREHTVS

BJ [7] = assay: growth inhibition of engineered Ras-driven BJ cells – cell-based, alamar blue fluorescence, cherrypicked samples, dose response (AID 2631); assay type: functional; details: Homo sapiens;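 also: confirmatory dose-response assay in RAS-dependent BJ fibroblasts engineered with TERT, LT and ST, with cytotoxicity read by fluorescence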
BJ [8] = assay: BJ-TERT-LT-ST fibroblast viability loss – cell-based, RAS-independent, luminescence, dose response (AID 1935); assay type: functional; details: Homo sapiens;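 also: BJ fibroblasts immortalized with TERT plus LT and ST oncogenes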
BJ [9] = assay: BJ-TERT fibroblast viability loss – cell-based, RAS-independent, luminescence, dose response (AID 1933); assay type: functional; details: Homo sapiens
[10] = luciferase reporter signal suppression in cells – H4 neuroglioma cells, luminescence, dose response (AID 1990); assay type: functional, cell-based
[11] = MIN6 cell viability loss – mouse insulinoma, cytotoxicity control, dose response (AID 2122); assay type: functional;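 also: confirmatory high-throughput counterscreen run to flag cytotoxic compounds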
[12] = Luminescence Cell-Based Dose Response HTS to Identify Inhibitors of 5'UTR Stem-Loop Driven Prion Protein mRNA Translation in H4 Neuroglioblastoma Cells. [Related pubchem assays: 1827 (Project Summary), 1813 (Primary HTS)]; assay type: functional
[13] = DRD fibroblast viability loss – cell-based, non-viral oncogenic, luminescence, dose response (AID 1934); assay type: functional; details: Homo sapiens
[14] = target: T3, Heat shock factor protein 1 (Mus musculus, UniProt P38532); assay: decrease of HSF1-responsive luciferase luminescence – cell-based, NIH3T3, dose retest, confirmation (AID 2382); assay type: functional;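 also: NIH3T3 fibroblasts with HSF1-driven luciferase reporter stressed by proteasome inhibitor MG132; luminescence from HSF1-driven luciferase expression after 8 hours of MG132 stress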
T3 sequence (P38532 whole entry): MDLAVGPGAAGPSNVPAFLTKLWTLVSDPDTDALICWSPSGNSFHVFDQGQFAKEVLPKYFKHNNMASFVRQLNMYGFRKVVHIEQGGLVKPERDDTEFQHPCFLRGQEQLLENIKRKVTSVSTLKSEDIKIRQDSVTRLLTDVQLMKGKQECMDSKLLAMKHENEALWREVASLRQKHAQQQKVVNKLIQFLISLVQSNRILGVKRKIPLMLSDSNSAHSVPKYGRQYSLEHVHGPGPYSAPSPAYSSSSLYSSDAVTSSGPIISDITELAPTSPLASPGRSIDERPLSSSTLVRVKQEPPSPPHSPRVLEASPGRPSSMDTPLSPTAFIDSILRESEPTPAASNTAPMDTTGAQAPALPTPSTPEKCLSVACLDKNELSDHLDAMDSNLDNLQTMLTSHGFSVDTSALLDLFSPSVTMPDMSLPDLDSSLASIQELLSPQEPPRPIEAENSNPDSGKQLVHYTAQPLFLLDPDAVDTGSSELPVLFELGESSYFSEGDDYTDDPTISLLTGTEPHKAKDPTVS

[15] = decrease of insulin promoter-GFP reporter – imaging, high-content screening, mouse beta cells (AID 1628); assay type: functional; details: MIN6
BJ [16] = assay: cells; assay type: functional, cell-based; details: Homo sapiens
[17] = target: T4, Type-1 angiotensin II receptor (Homo sapiens, UniProt P30556); assay: agonist activity at AGTR1 – cell-based, uHTS hits, selectivity assay for APJ receptor agonist project, dose response (AID 488865); assay type: functional;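 also: beta-arrestin recruitment to AT1 measured by enzyme fragment complementation luminescence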
T4 sequence (P30556 whole entry): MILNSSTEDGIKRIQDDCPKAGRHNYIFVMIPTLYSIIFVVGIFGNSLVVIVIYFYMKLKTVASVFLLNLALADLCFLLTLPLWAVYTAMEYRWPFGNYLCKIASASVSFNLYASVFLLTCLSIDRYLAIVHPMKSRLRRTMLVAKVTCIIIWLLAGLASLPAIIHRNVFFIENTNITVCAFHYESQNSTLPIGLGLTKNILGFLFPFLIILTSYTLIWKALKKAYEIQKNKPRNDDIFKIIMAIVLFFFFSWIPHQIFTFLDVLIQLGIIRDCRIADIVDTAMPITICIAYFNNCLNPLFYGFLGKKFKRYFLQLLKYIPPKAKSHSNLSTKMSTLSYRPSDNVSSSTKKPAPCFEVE

[18] = alpha-synuclein stem-loop luciferase translation blockers – H4 neuroglioma cells, luminescence, confirmation (AID 1988); assay type: functional, cell-based
INS1 = assay: INS-1E survival protection against cytokine death – cell-based, luminescence, retest, dose response (AID 449756); assay type: functional; details: Rattus norvegicus;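 also: cell death triggered by IL-1 beta plus TNF-alpha plus IFN-gamma mixture; protective hits raise ATP signal compared with cytokine alone wells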
X-box-binding protein 1 = X-box-binding protein 1 (Homo sapiens, UniProt P17861); assay type: functional, Cricetulus griseus;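 also: confirmatory dose-response counter-screen serving a CHOP assay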
Coagulation factor XII [19] = target: T2, Coagulation factor XII; assay: activated coagulation factor XII inhibitor potency, concentration-effect curve, cell-free (AID 716); assay type: functional
T-cell = assay: loss of vesicle association with mouse CD8+ T cells – mouse 2C CD8+ T cells, flow cytometry, dose response (AID 485284); assay type: functional
[20] = target: T5, G-protein coupled receptor 35 (Homo sapiens, UniProt Q9HC97); assay: SAR analysis of Agonists of the GPR35 Receptor using an Image-Based Assay - Set 3. [Related pubchem assays (depositor defined):AID1961, AID1965]; assay type: functional
[21] = target: G-protein coupled receptor 55 (Homo sapiens, UniProt Q9Y2T6); assay: SAR analysis of selective Agonists of GPR55 using an Image-Based Assay - Set 2. [Related pubchem assays (depositor defined):AID1961, AID1965]; assay type: functional
Cannabinoid receptor 1 [22] = target: T6, Cannabinoid receptor 1 (Homo sapiens, UniProt P21554); assay: SAR analysis of agonists of the Cannabinoid Receptor 1 using an Image-Based Assay - Set 3. [Related pubchem assays (depositor defined):AID1961, AID1965]; assay type: functional
[23] = target: T5, G-protein coupled receptor 35; assay: SAR analysis of Antagonists of the GPR35 Receptor using an Image-Based Assay - Set 4. [Related pubchem assays (depositor defined):[…]]; assay type: functional
Cannabinoid receptor 2 [24] = target: T7, Cannabinoid receptor 2 (Homo sapiens, UniProt P34972); assay: SAR analysis of antagonists of the Cannabinoid Receptor 2 using an Image-Based Assay - Set 2. [Related pubchem assays (depositor defined):AID1961, AID1965]; assay type: functional
Cannabinoid receptor 1 [25] = target: T6, Cannabinoid receptor 1; assay: SAR analysis of antagonists of the Cannabinoid Receptor 1 using an Image-Based Assay - Set 3. [Related pubchem assays (depositor defined):AID1961, AID1965]; assay type: functional
Cannabinoid receptor 2 [26] = target: T7, Cannabinoid receptor 2; assay: SAR analysis of agonists of the Cannabinoid Receptor 2 using an Image-Based Assay - Set 2. [Related pubchem assays (depositor defined):AID1961, AID1965]; assay type: functional
[27] = target: T8, Voltage-dependent T-type calcium channel subunit alpha-1H (Homo sapiens, UniProt O95180); assay: human CACNA1H calcium influx blockade – cell-based, synthetic library set 2, HEK293 HH8, Fluo-4, SAR follow-up (AID 493023); assay type: functional
[28] = target: T8, Voltage-dependent T-type calcium channel subunit alpha-1H; assay: Inhibitors of T-Type Calcium Channels (Cav3.2 HEK whole cell CRC). [Related pubchem assays (depositor defined):AID449739, AID463087, AID489005, AID493021, AID493022, AID493023, AID493041, AID504579, AID504584]; assay type: functional, cell-based, HEK293
[29] = NIH-3T3 fibroblast cytotoxicity, dose response, cytotoxicity control, cell-based, fluorescence, Alamar Blue, secondary assay (AID 2327); assay type: functional;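 also: NIH-3T3 mouse fibroblasts cultured with fluconazole at 8 µg/mL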
[30] = Luminescence Cell-Based Dose Retest to Confirm Inhibitors of Cancer Stem Cells. [Related pubchem assays (depositor defined):AID2717, AID2721]; assay type: functional; details: Homo sapiens
cells [31] = assay type: functional, cell-based
[32] = target: E3 ubiquitin-protein ligase Mdm2/Protein Mdm4 (Homo sapiens, UniProt O15151+Q00987); assay: disruption of Mdm2/MdmX protein binding – luminescence detection, dose response (AID 504593); assay type: functional
cells [33] = assay type: functional, cell-based; remark: listed apart in the source
[34] = fluconazole-exposed Candida albicans growth modulators – fluorescence, retest, confirmation (AID 2467); assay type: functional, cell-based

T8 sequence (O95180 whole entry): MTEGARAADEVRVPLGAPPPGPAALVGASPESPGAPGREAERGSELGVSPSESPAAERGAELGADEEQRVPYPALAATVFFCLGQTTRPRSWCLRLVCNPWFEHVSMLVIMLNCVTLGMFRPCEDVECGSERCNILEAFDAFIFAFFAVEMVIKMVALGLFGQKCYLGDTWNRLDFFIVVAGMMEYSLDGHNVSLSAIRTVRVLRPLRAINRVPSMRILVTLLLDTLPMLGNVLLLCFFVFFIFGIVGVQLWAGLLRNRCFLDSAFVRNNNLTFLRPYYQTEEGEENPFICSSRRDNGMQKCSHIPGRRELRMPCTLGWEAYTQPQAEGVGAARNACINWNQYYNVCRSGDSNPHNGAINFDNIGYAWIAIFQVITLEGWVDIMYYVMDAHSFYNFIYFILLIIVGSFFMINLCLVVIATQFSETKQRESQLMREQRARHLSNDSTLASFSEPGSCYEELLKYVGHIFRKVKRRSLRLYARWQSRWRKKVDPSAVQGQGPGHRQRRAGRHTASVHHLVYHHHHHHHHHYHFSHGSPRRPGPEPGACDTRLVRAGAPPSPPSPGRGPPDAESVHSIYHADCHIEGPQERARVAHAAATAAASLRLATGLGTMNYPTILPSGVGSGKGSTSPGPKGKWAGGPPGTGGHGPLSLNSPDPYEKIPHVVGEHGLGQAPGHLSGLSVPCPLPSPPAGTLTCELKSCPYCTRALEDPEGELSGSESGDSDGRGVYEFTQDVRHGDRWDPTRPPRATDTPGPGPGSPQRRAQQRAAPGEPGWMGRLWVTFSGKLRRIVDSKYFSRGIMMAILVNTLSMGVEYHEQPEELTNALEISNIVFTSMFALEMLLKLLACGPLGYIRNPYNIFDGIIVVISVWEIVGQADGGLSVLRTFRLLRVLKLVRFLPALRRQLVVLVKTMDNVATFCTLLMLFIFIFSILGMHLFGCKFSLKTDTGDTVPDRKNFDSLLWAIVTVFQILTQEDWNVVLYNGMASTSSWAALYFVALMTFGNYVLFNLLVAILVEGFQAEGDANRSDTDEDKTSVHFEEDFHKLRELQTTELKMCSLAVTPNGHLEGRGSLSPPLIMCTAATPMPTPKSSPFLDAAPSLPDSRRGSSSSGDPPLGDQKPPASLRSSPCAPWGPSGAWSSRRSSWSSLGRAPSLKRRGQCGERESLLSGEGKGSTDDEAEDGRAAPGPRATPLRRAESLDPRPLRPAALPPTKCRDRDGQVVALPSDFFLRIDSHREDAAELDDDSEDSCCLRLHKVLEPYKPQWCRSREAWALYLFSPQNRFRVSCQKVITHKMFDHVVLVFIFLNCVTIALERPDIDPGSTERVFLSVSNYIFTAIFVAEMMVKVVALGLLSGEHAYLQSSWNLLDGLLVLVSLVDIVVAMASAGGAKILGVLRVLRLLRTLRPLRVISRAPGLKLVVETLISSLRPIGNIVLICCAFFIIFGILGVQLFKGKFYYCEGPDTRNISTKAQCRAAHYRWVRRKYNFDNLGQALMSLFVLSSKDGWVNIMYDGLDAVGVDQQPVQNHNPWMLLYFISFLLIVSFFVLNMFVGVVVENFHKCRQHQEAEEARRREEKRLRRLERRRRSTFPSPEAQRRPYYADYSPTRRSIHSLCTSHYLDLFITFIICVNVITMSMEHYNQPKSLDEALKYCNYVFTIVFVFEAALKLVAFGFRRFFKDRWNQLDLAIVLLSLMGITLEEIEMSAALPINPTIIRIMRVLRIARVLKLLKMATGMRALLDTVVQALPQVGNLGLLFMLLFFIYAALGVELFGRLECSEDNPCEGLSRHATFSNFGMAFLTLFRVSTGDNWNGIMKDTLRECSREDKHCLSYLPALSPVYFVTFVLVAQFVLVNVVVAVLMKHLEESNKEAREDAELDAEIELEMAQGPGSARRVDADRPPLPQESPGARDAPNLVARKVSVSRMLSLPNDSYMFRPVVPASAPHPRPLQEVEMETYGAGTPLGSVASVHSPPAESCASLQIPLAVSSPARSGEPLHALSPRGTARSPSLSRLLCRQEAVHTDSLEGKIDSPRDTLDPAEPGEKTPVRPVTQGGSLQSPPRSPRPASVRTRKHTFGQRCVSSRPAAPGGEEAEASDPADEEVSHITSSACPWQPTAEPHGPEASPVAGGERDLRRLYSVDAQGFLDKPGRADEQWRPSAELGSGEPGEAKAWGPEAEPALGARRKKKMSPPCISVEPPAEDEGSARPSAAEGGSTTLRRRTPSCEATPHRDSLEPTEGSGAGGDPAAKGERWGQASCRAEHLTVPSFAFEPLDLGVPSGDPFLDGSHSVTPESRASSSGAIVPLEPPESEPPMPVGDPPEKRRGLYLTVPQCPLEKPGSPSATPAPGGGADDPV
T5 sequence (Q9HC97 whole entry): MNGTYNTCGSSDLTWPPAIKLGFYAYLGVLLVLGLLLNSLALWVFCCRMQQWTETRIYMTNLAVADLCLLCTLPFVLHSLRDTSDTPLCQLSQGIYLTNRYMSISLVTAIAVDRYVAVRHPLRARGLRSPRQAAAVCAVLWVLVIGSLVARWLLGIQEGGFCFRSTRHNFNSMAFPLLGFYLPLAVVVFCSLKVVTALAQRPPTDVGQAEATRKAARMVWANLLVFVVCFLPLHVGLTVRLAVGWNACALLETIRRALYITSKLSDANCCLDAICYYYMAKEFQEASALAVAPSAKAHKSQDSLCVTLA
T7 sequence (P34972 whole entry): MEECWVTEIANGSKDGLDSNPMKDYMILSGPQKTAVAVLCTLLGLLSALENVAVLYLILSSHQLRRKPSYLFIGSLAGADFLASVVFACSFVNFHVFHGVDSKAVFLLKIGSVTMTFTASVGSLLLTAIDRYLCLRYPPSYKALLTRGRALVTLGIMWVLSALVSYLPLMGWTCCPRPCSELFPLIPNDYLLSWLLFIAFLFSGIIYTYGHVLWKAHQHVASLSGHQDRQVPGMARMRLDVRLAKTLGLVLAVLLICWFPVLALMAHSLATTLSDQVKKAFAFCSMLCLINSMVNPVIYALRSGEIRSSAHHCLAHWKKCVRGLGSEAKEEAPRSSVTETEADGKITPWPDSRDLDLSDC
T1 sequence (Q01196 whole entry, the tested form may be a part): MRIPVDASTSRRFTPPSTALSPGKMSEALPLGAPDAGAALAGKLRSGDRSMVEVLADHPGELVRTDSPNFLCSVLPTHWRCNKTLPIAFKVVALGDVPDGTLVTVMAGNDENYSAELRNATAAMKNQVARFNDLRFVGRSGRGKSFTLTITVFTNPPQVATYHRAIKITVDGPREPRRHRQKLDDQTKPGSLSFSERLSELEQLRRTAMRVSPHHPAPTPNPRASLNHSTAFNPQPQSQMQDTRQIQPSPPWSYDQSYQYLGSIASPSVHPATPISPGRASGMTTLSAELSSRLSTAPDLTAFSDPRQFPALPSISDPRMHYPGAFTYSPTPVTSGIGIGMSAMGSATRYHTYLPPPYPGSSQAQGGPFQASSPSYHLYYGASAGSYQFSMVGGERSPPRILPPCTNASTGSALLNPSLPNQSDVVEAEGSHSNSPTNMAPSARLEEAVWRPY
T1 sequence (Q13951 whole entry, the tested form may be a part): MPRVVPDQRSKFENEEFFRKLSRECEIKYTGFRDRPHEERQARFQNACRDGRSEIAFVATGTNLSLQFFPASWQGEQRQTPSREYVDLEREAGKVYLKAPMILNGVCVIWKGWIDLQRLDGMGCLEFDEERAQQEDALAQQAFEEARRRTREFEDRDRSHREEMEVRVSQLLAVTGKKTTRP
T6 sequence (P21554 whole entry): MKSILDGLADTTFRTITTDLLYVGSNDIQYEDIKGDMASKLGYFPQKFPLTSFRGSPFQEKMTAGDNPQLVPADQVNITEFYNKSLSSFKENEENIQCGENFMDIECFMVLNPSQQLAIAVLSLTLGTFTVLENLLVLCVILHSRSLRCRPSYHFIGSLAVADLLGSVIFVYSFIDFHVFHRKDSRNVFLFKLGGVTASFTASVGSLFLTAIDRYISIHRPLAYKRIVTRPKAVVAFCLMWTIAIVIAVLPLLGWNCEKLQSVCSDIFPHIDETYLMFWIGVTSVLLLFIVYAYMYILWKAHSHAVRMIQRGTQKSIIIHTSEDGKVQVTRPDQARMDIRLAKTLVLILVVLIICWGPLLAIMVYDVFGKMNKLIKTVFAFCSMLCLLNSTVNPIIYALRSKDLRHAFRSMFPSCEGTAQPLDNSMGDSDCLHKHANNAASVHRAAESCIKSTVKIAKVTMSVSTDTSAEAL
Sequence of Induced myeloid leukemia cell differentiation protein Mcl-1 (Q07820 whole entry): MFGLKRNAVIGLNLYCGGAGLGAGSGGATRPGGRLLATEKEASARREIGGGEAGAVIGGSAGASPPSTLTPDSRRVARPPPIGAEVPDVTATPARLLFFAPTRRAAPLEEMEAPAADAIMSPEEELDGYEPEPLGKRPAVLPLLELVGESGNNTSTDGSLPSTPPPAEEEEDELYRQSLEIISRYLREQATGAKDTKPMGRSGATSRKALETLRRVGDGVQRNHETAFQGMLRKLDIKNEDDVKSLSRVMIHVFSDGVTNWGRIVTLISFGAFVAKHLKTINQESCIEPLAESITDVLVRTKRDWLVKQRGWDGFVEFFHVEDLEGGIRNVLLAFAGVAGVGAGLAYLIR
Sequence of Caspase-6 (P55212 24-179 limits assumed): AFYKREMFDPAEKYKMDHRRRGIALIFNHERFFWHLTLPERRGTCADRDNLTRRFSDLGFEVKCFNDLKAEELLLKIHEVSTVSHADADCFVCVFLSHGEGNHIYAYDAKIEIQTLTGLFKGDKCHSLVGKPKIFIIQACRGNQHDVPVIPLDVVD
Sequence of Caspase-6 (P55212 194-293 limits assumed): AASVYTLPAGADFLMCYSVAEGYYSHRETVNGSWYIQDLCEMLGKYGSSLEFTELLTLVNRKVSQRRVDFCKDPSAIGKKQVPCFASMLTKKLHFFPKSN
Sequence of X-box-binding protein 1 (P17861 whole entry): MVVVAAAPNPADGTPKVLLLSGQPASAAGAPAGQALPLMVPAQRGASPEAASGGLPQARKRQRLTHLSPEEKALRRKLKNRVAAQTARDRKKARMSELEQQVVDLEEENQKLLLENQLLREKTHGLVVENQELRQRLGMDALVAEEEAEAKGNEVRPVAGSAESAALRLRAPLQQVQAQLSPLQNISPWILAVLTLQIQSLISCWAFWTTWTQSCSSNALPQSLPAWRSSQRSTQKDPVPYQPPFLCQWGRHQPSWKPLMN

SMILES: Cc1ccc(CNC(=O)NCc2ccccc2)cc1
- IC50 [1]: > 100 µM (inactive)
- IC50 [2]: > 100 µM (inactive)

SMILES: O=C(O)/C(=C\c1ccc(Cl)c([N+](=O)[O-])c1)c1ccc(S(=O)(=O)N2CCCC2)s1
- IC50 (Bcl-2-like protein 1): > 109 µM (not active)
- AC50 (Caspase-7): > 70 µM (inactive)
- IC50 [3]: 19.4 µM (active)
- AC50 (Caspase-6): 3.82 µM (active)
- IC50 [4]: 47.8 µM (active)
- IC50 [5]: 15 µM (not active)

SMILES: CC(C)NC(=O)c1ccccc1-c1ccccc1
- IC50 (Coagulation factor XII [6]): > 50 µM (inactive)

SMILES: Cn1ncc2c(ON=C(N)c3ccc(C(C)(C)C)cc3)ncnc21
- EC50 (BJ [7]): 2.92 µM (active)
- EC50 (BJ [8]): 4.91 µM (inconclusive)
- EC50 (BJ [9]): 1.32 µM (active)
- EC50 [10]: > 120 µM (not active)
- IC50 [11]: 1.22 µM (active)
- EC50 [12]: 10.1 µM (active)
- EC50 [13]: 2.83 µM (active)
- EC50 [14]: 7.4 µM (active)
- IC50 [15]: 2.12 µM (active)
- EC50 (BJ [16]): 5.24 µM (inconclusive)
- EC50 [17]: > 100 µM (inactive)
- EC50 [18]: 7.91 µM (active)
- AC50 (INS1): 5.03 µM (active)
- Absolute IC50 (XBP1) (X-box-binding protein 1): < 10 µM

SMILES: O=C(Cc1ccc(-n2cccc2)cc1)N1CCc2ccccc21
- IC50 (Coagulation factor XII [19]): > 50 µM (inactive)

SMILES: COc1ccc(/C=C2\SC(=S)N(CCC(=O)N3CCOCC3)C2=O)cc1
- EC50 (T-cell): 16.2 µM (active)

SMILES: Cc1cccc(N2CCN(C(=O)c3cccc(S(=O)(=O)N(C)C)c3)CC2)c1C
- EC50 [20]: > 32 µM (inactive)
- EC50 [21]: 3.12 µM (active)
- EC50 (Cannabinoid receptor 1 [22]): > 32 µM (inactive)
- IC50 [23]: > 32 µM (inactive)
- IC50 (Cannabinoid receptor 2 [24]): > 32 µM (inactive)
- IC50 (Cannabinoid receptor 1 [25]): > 32 µM (inactive)
- EC50 (Cannabinoid receptor 2 [26]): > 32 µM (inactive)

SMILES: CC(C)(C)CCN1C[C@@H]2[C@@H](CNC(=O)c3cc(Cl)cc(Cl)c3)[C@@H]2C1
- EC50 [27]: 0.15 µM (active)
- IC50 [28]: 0.036 µM (active)

SMILES: O=C(CN1CCCc2ccccc21)N/N=C/c1c(O)ccc2ccccc12
- EC50 [29]: > 160 µM (inconclusive)
- AC50 [30]: 1.83 µM (active)
- EC50 (cells [31]): 60.1 µM (active)
- IC50 [32]: 2.68 µM (active)
- EC50 (cells [33]): > 350 µM (not active)
- EC50 [34]: 1.91 µM (active)

From ChEMBL document CHEMBL1201862, “PubChem BioAssay data set” (2004)
